# What was measured:
# cannabinoid CB1 receptor = target: T1, cannabinoid CB1 receptor (Homo sapiens, UniProt P21554); experiment: PathHunter β-Arrestin assay (allosteric inhibition of agonist Emax); format: cell-based; settings: FIG. 1; reduction in Emax not overcome by higher concentrations of agonist
# T1 construct: host or cells: HEK293 CB1 β-arrestin cells
# Text: PathHunter™ enzyme fragment complementation is the most important method to measure β-arrestin recruitment. PathHunter™ β-Arrestin assays developed by DiscoveRX are revolutionary high-throughput screening assays for monitoring GPCR activation following ligand stimulation, without an imaging instrument, fluorescent protein tag, or radioactivity.
# Instead, the assays detect GPCR activation through binding of β-arrestin to the expressed GPCR of interest, and measure the interaction of the two proteins using enzyme fragment complementation (EFC). The EFC approach offers a range of benefits for screening, including signal amplification and robust performance.
# The larger portion of β-gal, termed EA for enzyme acceptor, is fused to the C-terminus of β-arrestin. The smaller, complementing fragment of β-gal, the ProLink™ tag, is expressed as a fusion protein with the GPCR of interest at the C-terminus. Upon activation, the GPCR is bound by β-arrestin. The interaction of β-arrestin and the GPCR forces the interaction of ProLink and EA, thus allowing complementation of the two fragments of β-gal and the formation of a functional enzyme capable of hydrolyzing substrate and generating a […] signal.
# Using the PathHunter™ CB1 kit from DiscoveRX, a cannabinoid CB1 receptor agonist is added and activates the receptor, EA, which is fused to the C-terminus of β-arrestin, and then interacts with the ProLink™ tag which is fused to the CB1 receptor. This will result in the […] signal that is recorded by a luminescence plate reader. The […] signal is directly related to the activation of the receptor, therefore a higher concentration of agonist will yield a larger […] signal. The cannabinoid agonist is added in increasing concentrations to obtain an agonist dose response curve. With pre-incubation of a potential allosteric modulator, either an enhancement of agonist activity with an allosteric enhancer or a decrease in the maximal response of the agonist with an allosteric inhibitor is expected.
# All raw data are obtained as luminescence (relative light units), and are normalised and presented as a percentage of the maximal response for the cannabinoid CB1 receptor agonist CP55,940 (2-[(1R,2R,5R)-5-hydroxy-2-(3-hydroxypropyl)cyclohexyl]-5-(2-methyloctan-2-yl)phenol).
# The PathHunter™ β-Arrestin assay (from DiscoveRX, Fremont, USA) was performed as follows. HEK293 CB1 β-arrestin cells were plated 48 hours before use and incubated at 37° C., 5% CO2 in a humidified incubator. Test compounds were dissolved in dimethylsulfoxide (DMSO) and diluted in optimized cell culture (OCC, as supplied by DiscoveRX) media to the required concentrations. 5 μL of test compound or vehicle solution was added to each well and incubated for 60 minutes at 37° C., 5% CO2 in a humidified incubator. 5 μL of increasing concentrations of anandamide was added to each well followed by a 90-minute incubation at 37° C., 5% CO2 in a humidified incubator. 55 μL of detection reagent (as supplied by DiscoveRX) was then added, followed by a further 90 minute incubation at room temperature in the dark. Chemiluminescence, reported in relative light units (RLU—a dimensionless value, standardised as a % of maximum stimulation with anandamide), was measured on a standard luminescence plate reader.
# Data were plotted as % of maximal stimulation (Emax) caused by agonist versus the logarithm of concentration of agonist, in the presence or absence of a fixed concentration of test compound (modulator) or vehicle. For example, stimulation in the presence of agonist alone will give a value for stimulation expressed in RLU, which can be expressed as a range from 0% (at lowest agonist concentration, e.g., 1 nM) to 100% (at the highest agonist concentration, e.g., 10 μM). […]
# GluN1KD mice = experiment: Open field test in GluN1KD mice and WT littermates; format: in vivo; settings: 10 mg/kg; for Locomotor Activity (total distance traveled) / Stereotypy (total stereotypic movements) / Vertical Activity (total): mean±SEM
# Text: Functional NMDARs are composed of a common GluN1 subunit and one of four GluN2 subunits (GluN2A-GluN2D) combined in an undetermined ratio to make the heteromeric receptor complex. Recent studies using post mortem prefrontal cortex samples from patients with SCZ and depression, display a series of changes in NMDAR regulation. Endocannabinoids, via CB1Rs, control the presence of NR1 C1 subunits in the neural membrane which has implications for psychosis and SCZ. […] The GluN1KD (NMDAR hypofunction model) mouse line expresses 5-10% of the normal level of the subunit. GluN1KD mice display behavioural abnormalities that have been related to SCZ; these behaviours are normalized by the antipsychotics haloperidol and clozapine. At the dopamine level, GluN1KD mice have remodelled dopamine neurons, leading to a state of hyperdopaminergia, manifesting as an increase in tonic firing rates of dopaminergic neurons (Ferris et al., 2014).
# Adult (>P70) GluN1-knockdown (GluN1KD—F1: C571Bl/6J x 129S1/SvlmJ) and DAT-knockout (DATKO—C57Bl/6J), balanced for sex, were treated with either vehicle (1:1:18-Tween80:95% ethanol:saline) or a novel CB1 negative allosteric modulator (CB1 NAM), ABM300, at 10 mg/kg, was tested in behavioural assays, and compared to littermate controls. Locomotor, stereotypic movements and vertical activity were tested, along with anxiety/mania and sensorimotor gating behaviours. All data were analyzed with two- or three-way ANOVA, as appropriate, and corrected for multiple comparisons.
# Classically, locomotor output has been used as a gold standard for the measure of dopamine system dysfunction. The role of dopamine in movement control is well defined and, in its simplest forms, testing for hyperactivity is based on the premise that enhanced dopaminergic activity in rodents leads to enhanced motor activity (van den Buuse et al., 2010). Locomotor, stereotypic and vertical activity was recorded using digital activity monitors, quantifying horizontal and vertical activity, along with repetitive behaviour, via infrared beam breaks. GluN1 KD and DATKO display basal hyperactivity, with increases in stereotypic behaviours which can be ameliorated with antipsychotics (Peleg-Raibstein et al., 2008).
# [1] = WT (F1: C57Bl/6J x 129S1/SvlmJ) mice, open field
# T1 sequence (P21554 whole entry): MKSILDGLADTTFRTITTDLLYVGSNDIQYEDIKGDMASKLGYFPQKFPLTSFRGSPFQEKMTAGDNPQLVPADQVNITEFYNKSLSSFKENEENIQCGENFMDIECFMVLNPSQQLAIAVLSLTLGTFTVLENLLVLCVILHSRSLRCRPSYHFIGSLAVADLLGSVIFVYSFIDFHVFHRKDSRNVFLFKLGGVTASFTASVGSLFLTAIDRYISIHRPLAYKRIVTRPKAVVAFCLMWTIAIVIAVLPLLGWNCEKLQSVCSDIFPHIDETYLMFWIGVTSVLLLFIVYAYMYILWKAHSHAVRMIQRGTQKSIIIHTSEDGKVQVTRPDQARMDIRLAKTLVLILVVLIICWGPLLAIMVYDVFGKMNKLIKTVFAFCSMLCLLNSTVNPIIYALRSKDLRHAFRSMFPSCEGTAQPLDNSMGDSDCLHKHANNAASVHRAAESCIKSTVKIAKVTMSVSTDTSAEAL
smiles,measurement,setting,value
"CCc1c(-c2nnc(Nc3ccccc3)o2)[nH]c2ccc(Cl)cc12 [ABM300, 5-(5-Chloro-3-ethyl-1H-indol-2-yl)-N-phenyl-1,3,4-oxadiazol-2-amine]",type of modulation,cannabinoid CB1 receptor,allosteric inhibitor (negative allosteric modulator)
same,effect on hyperactivity (in words),GluN1KD mice; GluN1KD mice,reduces hyperactivity
same,effect on abnormal stereotypic behaviours (in words),"GluN1KD mice; GluN1KD mice, open field",reduces abnormal stereotypic behaviours
same,effect on abnormal vertical exploration (risk-taking behaviour) (in words),"GluN1KD mice; GluN1KD mice, open field",reduces abnormal vertical exploration
same,Locomotor Activity (total distance traveled),"GluN1KD mice; GluN1KD mice, open field",5857 ± 1242 cm
same,Stereotypy (total stereotypic movements),"GluN1KD mice; GluN1KD mice, open field",891 ± 93
same,Vertical Activity (total),"GluN1KD mice; GluN1KD mice, open field",479 ± 142
same,Locomotor Activity (total distance traveled),GluN1KD mice; [1],688 ± 193 cm
same,Stereotypy (total stereotypic movements),GluN1KD mice; [1],298.80 ± 45
same,Vertical Activity (total),GluN1KD mice; [1],43.91 ± 26

# Source: patent US20220257569A1, “INDOLE-OXADIAZOLE COMPOUNDS AND THEIR THERAPEUTIC USE” (THE GOVERNING COUNCIL OF THE UNIVERSITY OF TORONTO, priority 2018, published 2022)
